{
  "source": "patent US20220331269A1",
  "about": "“COMPOSITIONS FOR TREATING ACNE” (Botanix Pharmaceuticals Ltd., priority 2017, published 2022)",
  "system": "inflammatory lesions in patient with acne",
  "assay": "2-(2-ethoxyethoxy)ethanol tested against an active ingredient (for example dapsone gel) in patients with acne",
  "assay_type": "in vivo, human",
  "excerpt": "Without being bound to any theory, we believe that the mechanism for this action is the 2-(2-ethoxyethoxy)ethanol may fluidize the lipids on the skin, thereby retarding the formation of microcomedones. If 2-(2-ethoxyethoxy)ethanol keep lipids from “gluing together” the desquamated keratinocytes, the number of clogged follicles, and subsequently the number of inflammatory lesions, would potentially be reduced. 2-(2-ethoxyethoxy)ethanol in the compositions of the present invention provides a means for stopping the formation of acne at its source; lipids and desquamated keratinocytes clogging pores leading to inflammation and formation of comedones. The compositions of the present invention may be active in clearing acne if used as a routine cleanser.",
  "data": [
    {"compound": "CCOCCOCCO", "note": "[2-(2-ethoxyethoxy)ethanol]", "values": [
      {"measurement": "number of inflammatory lesions", "result": "appears to have activity to reduce the number of inflammatory lesions"}
    ]}
  ]
}
